Patent US10154973B2, “Quinone compounds for treating APE1 mediated diseases” (Indiana University Research and Technology Corporation, priority 2011, dated 2018)
Like-named read-outs stand apart in the source and are kept apart here.

Assays:
[1] = test system: Hey-C2; experiment: Growth inhibition of ovarian cancer cells, Hey-C2; type: cell-based; conditions: ovarian cancer cell line
Description: (§1) Test compounds are assayed for growth inhibition ability against two 2 ovarian cancer cell lines. IC50 values for test compounds are determined.

[2] = Pharmacokinetics in mice; conditions: mouse, in vivo, approximate values
Description: The pharmacokinetics of test compounds are evaluated in mice using conventional methods, using oral (25 mg/kg), intraperitoneal (25 mg/kg), and intravenous routes (5 mg/kg) of administration. The following approximate Cmax (ng/mL) values for test compounds are determined.

[3] = test system: Skov-3X; experiment: Growth inhibition of ovarian cancer cells, Skov-3X; type: cell-based; conditions: ovarian cancer cell line
Description: as §1

[4] = test system: pGF-NFκB in SF767 cells; experiment: NFκB luciferase reporter assay in SF767 glioma cells; type: cell-based; conditions: SF767 glioma cell line; luciferase activity 40 hrs after treatment; stable pGF-NFκB
Description: (§2) Using lentiviral transcriptional reporter vectors, pGreenFire-NFkB, and pGreenFire-mCMV (negative control), from System Biosciences Inc. (Mountainview, Calif.), HEK293-T cells (Lonza, Inc. Allendale, N.J.) are transfected with the constructs and the media containing the viral supernatants is collected. To generate stably expressing reporter cell lines, cancer cell lines are infected with the viral supernatant and the cells are selected with puromycin ([…]) for 5 days. For the experiments, test compound is added and left on the cells before being assayed for luciferase activity. SKOV-3X, Panc1, and SF767 cells with the stable pGF-NFκB are treated with test compounds and assayed 40 hrs later for luciferase activity. Panc1 is a pancreatic cancer cell line; SF767 is the glioma cell line. IC50 values for test compounds are determined.

[5] = test system: pGF-NFκB in Panc1 cells; experiment: NFκB luciferase reporter assay in Panc1 pancreatic cancer cells; type: cell-based; conditions: Homo sapiens, PANC-1; luciferase activity 40 hrs after treatment; stable pGF-NFκB; read-out: Panel IC50
Description: as §2

[6] = test system: PaCa-2 cells; experiment: Pancreatic cancer cell xenograft; type: in vivo; conditions: orally 25 mg/kg twice daily for 18 days; PaCa-2 s.c. in NOD/SCID mice; FIG. 1
Description: PaCa-2 cells (2.5×10^6) in 0.2 mL of DMEM media were implanted s.c. into the right flanks of NOD/SCID mice. Test compounds are dissolved in 4% CremophorEL:EtOH (1:1)/saline solution or methylcellulose (0.5%, Sigma). When tumor volumes are greater than about 100 mm^3, test compounds are administered, such as orally, twice daily, 8 hours apart, at 25 mg/kg for 10 to 18 days (5 days on 2 days off schedule). Tumors are measured biweekly and followed for approximately 6 weeks. Tumor volumes are monitored by caliper measurement [tumor volume=length×(perpendicular width)2×0.5] and the average tumor volume in mm^3 for each treatment group is plotted. Treatment corresponds to days 1 to 15. Average tumor volume±SE for the vehicle compared to test compounds (n=7) are analyzed by statistical analysis. Additional details are described in Fishel et al. Mol Cancer Ther. 2011 September; 10(9):1698-708.

[7] = test system: NFkB; experiment: Ape1/Ref1 transcription factor activation (NFkB transactivation); type: cell-based; conditions: Hey-C2, SF767, Panc1, and Skov-3X cell lines
From the text: The DNA base excision-repair pathway is responsible for the repair of DNA damage caused by oxidation/alkylation and protects cells against the effects of endogenous and exogenous agents. Removal of the damaged base creates a baseless (AP) site. AP endonuclease1 (Ape1) acts on this site to continue the BER-pathway repair. Failure to repair baseless sites leads to DNA strand breaks and cytotoxicity. In addition to the repair role, Ape1 also functions as a major redox-signaling factor to reduce and activate transcription factors such as AP1, p53, HIF-1alpha, and others that control the expression of genes important for cell survival and cancer promotion and progression. Thus, the Ape1 protein interacts with proteins involved in DNA repair, growth-signaling pathways, and pathways involved in tumor promotion and progression. Test compounds are evaluated for activity in decreasing transactivation of transcription factors.

[8] = biological target: Ape1 (Homo sapiens, UniProt P27695); experiment: Redox EMSA assay; type: biochemical; conditions: electrophoresis, 0.02 mM DTT
Description: Conventional electrophoresis measuring Ape1 expression with 0.02 mM DTT is used to evaluate test compounds. […] Additional details are described in Fishel et al. Mol Cancer Ther. 2011 September; 10(9):1698-708 & Luo et al., Antioxid Redox Signal. 2008 November; 10(11):1853-67.

Ape1, sequence (P27695 whole entry): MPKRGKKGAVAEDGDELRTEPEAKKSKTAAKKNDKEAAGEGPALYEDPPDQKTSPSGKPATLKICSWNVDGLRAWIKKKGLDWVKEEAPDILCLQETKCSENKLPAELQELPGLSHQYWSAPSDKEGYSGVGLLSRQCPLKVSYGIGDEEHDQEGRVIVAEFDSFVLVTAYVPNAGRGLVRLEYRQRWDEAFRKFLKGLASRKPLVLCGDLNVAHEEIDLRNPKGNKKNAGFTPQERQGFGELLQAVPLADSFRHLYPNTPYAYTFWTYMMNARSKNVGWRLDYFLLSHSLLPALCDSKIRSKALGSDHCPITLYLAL

IC50 [1] [µM] | Cmax ([2]; intravenous 5 mg/kg, read-out: IV Cmax) [ng/mL] | Cmax ([2]; ip, intraperitoneal 25 mg/kg, read-out: IP Cmax) [ng/mL] | Cmax ([2]; oral 25 mg/kg, read-out: Oral Cmax) [ng/mL] | IC50 [3] [µM] | IC50 [4] [µM] | IC50 [5] [µM] | concentration showing significant signal reduction [8] [µM] | Structure (SMILES) | tumor volume compared to untreated control [6] | % transactivation of NFkB [7] | Ape1 expression knock-down compared to E3330 ([8]; in vitro)
18 | 200 | 2000 | 200 | 17 | 10 | 5 | – | COC1=C(C=C(C)C(=O)N(C)C)C(=O)c2ccccc2C1=O [Example 5a] | – | – | –
25 | – | – | – | 30 | 18 | 8 | – | CCCC(=CC1=C(OC)C(=O)c2ccccc2C1=O)C(=O)N(CC)CC [Example 5c] | – | – | –
11 | – | – | – | 10 | 10 | 7 | – | CCCC(=CC1=C(OC)C(=O)c2ccccc2C1=O)C(=O)NOC [Example 5d] | – | – | –
28 | – | – | – | 38 | 12 | 9 | 20 | CCCCCCCCCC(=CC1=C(C)C(=O)C(OC)=C(OC)C1=O)C(=O)NOC [Example 6a] | significant reduction in tumor volume | significant decrease | improved expression knock-down compared to E3330
22 | – | – | – | 32 | 18 | 10 | – | CCCCCCCCCC(=CC1=C(C)C(=O)C(OC)=C(OC)C1=O)C(=O)N(C)OC [Example 6b] | – | – | –
~100 | – | – | – | ~100 | 80 | 52 | 30 | CCCCCCCCC/C(=C\C1=C(C)C(=O)C(OC)=C(OC)C1=O)C(=O)O [Example E3330, reference compound] | – | – | –
